Measurements published in patent publication US20260285850A1, “SUBSTITUTED OXAZOLIDINONES AND IMIDAZOLINONES AS HERBICIDES” (FMC CORPORATION, priority 2023, published 2026).

Key:
Assay type in all cases: in vivo
[1] = system: palmer (palmer amaranth, palmer pigweed, Amaranthus palmeri); test: Test A preemergence soil spray, visual injury rating 0-100; conditions: 10 days
Method in brief: (§1)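 Grow plants in loam soil blended with sand. Apply formulated compound (non-phytotoxic solvent, surfactant) as a directed soil spray before emergence, or to plants at the one- to two-leaf stage after emergence. Hold in greenhouse 10 days, then rate injury visually versus untreated controls on a 0-100 scale.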

[2] = system: ragweed (common ragweed, Ambrosia artemisiifolia); test: as above; conditions: 10 days
Method in brief: as §1

[3] = system: blackgrass (Alopecurus myosuroides); test: as above; conditions: 10 days
Method in brief: as §1

[4] = system: wheat (Triticum aestivum); test: as above; conditions: 10 days
Method in brief: as §1

[5] = system: green foxtail (Setaria viridis); test: as above; conditions: 10 days
Method in brief: as §1

[6] = system: oat, wild (wild oat, Avena fatua); test: as above; conditions: 10 days
Method in brief: as §1

corn (Zea mays) [7] = test: as above; conditions: 10 days
Method in brief: as §1

soybean (Glycine max) [8] = test: as above; conditions: 10 days
Method in brief: as §1

kochia (Bassia scoparia) [9] = test: as above; conditions: 10 days
Method in brief: as §1

[10] = system: barnyardgrass (Echinochloa crus-galli); test: as above; conditions: 10 days
Method in brief: as §1

[11] = system: ryegrass, Italian (italian ryegrass, Lolium multiflorum); test: as above; conditions: 10 days
Method in brief: as §1

[12] = system: palmer (palmer amaranth, palmer pigweed, Amaranthus palmeri); test: Test A postemergence application, visual injury rating 0-100
Method in brief: as §1

[13] = system: ragweed (common ragweed, Ambrosia artemisiifolia); test: as above
Method in brief: as §1

[14] = system: blackgrass (Alopecurus myosuroides); test: as above
Method in brief: as §1

[15] = system: horseweed (Erigeron canadensis); test: as above
Method in brief: as §1

[16] = system: galium (catchweed bedstraw, Galium aparine); test: as above
Method in brief: as §1

[17] = system: wheat (Triticum aestivum); test: as above
Method in brief: as §1

[18] = system: green foxtail (Setaria viridis); test: as above
Method in brief: as §1

[19] = system: oat, wild (wild oat, Avena fatua); test: as above
Method in brief: as §1

corn (Zea mays) [20] = test: as above
Method in brief: as §1

soybean (Glycine max) [21] = test: as above
Method in brief: as §1

kochia (Bassia scoparia) [22] = test: as above
Method in brief: as §1

[23] = system: barnyardgrass (Echinochloa crus-galli); test: as above
Method in brief: as §1

[24] = system: ryegrass, Italian (italian ryegrass, Lolium multiflorum); test: as above
Method in brief: as §1

rice (Oryza sativa) = test: Test B flooded paddy test, visual plant response rating 0-100; conditions: 250 g ai/ha, Flood, applied to paddy water, evaluated after 13 days
Method in brief: (§2)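 Visual evaluation after 13 days. Water-applied treatment, 3 cm flood depth held constant, plants at 2-leaf stage at treatment.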

[25] = system: ducksalad (Heteranthera limosa); test: as above; conditions: 250 g ai/ha, Flood, applied to paddy water, evaluated after 13 days
Method in brief: as §2

[26] = system: barnyardgrass (Echinochloa crusgalli); test: as above; conditions: 250 g ai/ha, Flood, applied to paddy water, evaluated after 13 days
Method in brief: as §2

[27] = system: sedge, umbrella (small-flower umbrella sedge, Cyperus difformis); test: as above; conditions: 250 g ai/ha, Flood, applied to paddy water, evaluated after 13 days
Method in brief: as §2

[28] = 62 g ai/ha, 0 = no effect, 100 = complete control
[29] = 62 g ai/ha, postemergence, 10 days, 0 = no effect, 100 = complete control
[30] = Postemergence, 16 g ai/ha, greenhouse 10 days, 0 no effect, 100 complete control

For CC(C)COC(=O)C1=CCC(NC(=O)C2(C)CN(c3cc(Cl)cc(Cl)c3)C(=O)O2)C1 (stereo not shown) [Compound 156], the “Pigweed, Palmer plant response rating” value ([1]; 16 g ai/ha, 0 to 100 scale) was 20, the “Pigweed, Palmer plant response rating (0-100)” value [1, 28] was 80 and the “Ragweed plant response rating” value ([2]; 16 g ai/ha, 0 to 100 scale) was 0. For the same compound, the “Ragweed plant response rating (0-100)” value [2, 28] was 0, the “Blackgrass plant response rating” value ([3]; 16 g ai/ha, 0 to 100 scale) was 0 and the “Blackgrass plant response rating (0-100)” value [3, 28] was 30. The “Wheat plant response rating” value ([4]; 16 g ai/ha, 0 to 100 scale) was 10, the “Wheat plant response rating (0-100)” value [4, 28] was 50 and the “Foxtail, Green plant response rating” value ([5]; 16 g ai/ha, 0 to 100 scale) was 40. The “Foxtail, Green plant response rating (0-100)” value [5, 28] was 90, the “Oat, Wild plant response rating” value ([6]; 16 g ai/ha, 0 to 100 scale) was 0 and the “Oat, Wild plant response rating (0-100)” value [6, 28] was 0. The “Corn plant response rating” value (corn (Zea mays) [7]; 16 g ai/ha, 0 to 100 scale) was 0, the “Corn plant response rating (0-100)” value (corn (Zea mays) [7]; [28]) was 50 and the “Soybean plant response rating” value (soybean (Glycine max) [8]; 16 g ai/ha, 0 to 100 scale) was 0. For the same compound, the “Soybean plant response rating (0-100)” value (soybean (Glycine max) [8]; [28]) was 0, the “Kochia plant response rating” value (kochia (Bassia scoparia) [9]; 16 g ai/ha, 0 to 100 scale) was 20 and the “Kochia plant response rating (0-100)” value (kochia (Bassia scoparia) [9]; [28]) was 70. For the same compound, the “Barnyardgrass plant response rating” value ([10]; 16 g ai/ha, 0 to 100 scale) was 0, the “Barnyardgrass plant response rating (0-100)” value [10, 28] was 50 and the “Ryegrass, Italian plant response rating” value ([11]; 16 g ai/ha, 0 to 100 scale) was 0. The “Ryegrass, Italian plant response rating (0-100)” value [11, 28] was 30, the “Pigweed, Palmer plant response rating (0-100)” value [12, 29] was 90 and the “Pigweed, Palmer plant response rating (0 to 100 scale)” value [12, 30] was 90. For the same compound, the “Ragweed plant response rating (0-100)” value [13, 29] was 50, the “Ragweed plant response rating (0 to 100 scale)” value [13, 30] was 30 and the “Blackgrass plant response rating (0-100)” value [14, 29] was 90. For the same compound, the “Blackgrass plant response rating (0 to 100 scale)” value [14, 30] was 70, the “Horseweed plant response rating (0-100)” value [15, 29] was 80 and the “Horseweed plant response rating (0 to 100 scale)” value [15, 30] was 30. The “Galium plant response rating (0-100)” value [16, 29] was 80, the “Galium plant response rating (0 to 100 scale)” value [16, 30] was 80 and the “Wheat plant response rating (0-100)” value [17, 29] was 70. The “Wheat plant response rating (0 to 100 scale)” value [17, 30] was 50, the “Foxtail, Green plant response rating (0-100)” value [18, 29] was 90 and the “Foxtail, Green plant response rating (0 to 100 scale)” value [18, 30] was 80. For the same compound, the “Oat, Wild plant response rating (0-100)” value [19, 29] was 70, the “Oat, Wild plant response rating (0 to 100 scale)” value [19, 30] was 20 and the “Corn plant response rating (0-100)” value (corn (Zea mays) [20]; [29]) was 100. For the same compound, the “Corn plant response rating (0 to 100 scale)” value (corn (Zea mays) [20]; [30]) was 90, the “Soybean plant response rating (0-100)” value (soybean (Glycine max) [21]; [29]) was 60 and the “Soybean plant response rating (0 to 100 scale)” value (soybean (Glycine max) [21]; [30]) was 50. For the same compound, the “Kochia plant response rating (0-100)” value (kochia (Bassia scoparia) [22]; [29]) was 80, the “Kochia plant response rating (0 to 100 scale)” value (kochia (Bassia scoparia) [22]; [30]) was 80 and the “Barnyardgrass plant response rating (0-100)” value [23, 29] was 100. The “Barnyardgrass plant response rating (0 to 100 scale)” value [23, 30] was 100, the “Ryegrass, Italian plant response rating (0-100)” value [24, 29] was 70 and the “Ryegrass, Italian plant response rating (0 to 100 scale)” value [24, 30] was 60. The “Plant response rating, Rice (0 to 100 scale, 0 is no effect and 100 is complete control)” value (rice (Oryza sativa)) was 45, the “Plant response rating, Ducksalad (0 to 100 scale, 0 is no effect and 100 is complete control)” value [25] was 75 and the “Plant response rating, Barnyardgrass (0 to 100 scale, 0 is no effect and 100 is complete control)” value [26] was 55. For the same compound, the “Plant response rating, Sedge, Umbrella (0 to 100 scale, 0 is no effect and 100 is complete control)” value [27] was 90.
